Data published in ChEMBL document CHEMBL5649169 (ChemMedChem, 2018).

What was measured:
[1] = molecular target: Transferrin receptor protein 1 (Homo sapiens) (UniProt P02786); note: assay method not described here
[2] = molecular target: Eukaryotic translation initiation factor 3 subunit J (Homo sapiens) (UniProt O75822); note: assay method not described here
[3] = molecular target: Ras-related protein Rab-14 (Homo sapiens) (UniProt P61106); note: assay method not described here
[4] = molecular target: Zinc finger CCCH-type antiviral protein 1 (Homo sapiens) (UniProt Q7Z2W4); note: assay method not described here
[5] = molecular target: Histone H4 (Homo sapiens) (UniProt P62805); note: assay method not described here
[6] = molecular target: Acidic leucine-rich nuclear phosphoprotein 32 family member B (Homo sapiens) (UniProt Q92688); note: assay method not described here
[7] = molecular target: Myosin light polypeptide 6 (Homo sapiens) (UniProt P60660); note: assay method not described here
[8] = molecular target: General transcription factor II-I (Homo sapiens) (UniProt P78347); note: assay method not described here
[9] = molecular target: Chromodomain-helicase-DNA-binding protein 4 (Homo sapiens) (UniProt Q14839); note: assay method not described here
[10] = molecular target: Ras-related protein Rab-5B (Homo sapiens) (UniProt P61020); note: assay method not described here
[11] = molecular target: E3 ubiquitin-protein ligase RNF213 (Homo sapiens) (UniProt Q63HN8); note: assay method not described here
[12] = molecular target: Eukaryotic translation initiation factor 3 subunit H (Homo sapiens) (UniProt O15372); note: assay method not described here
[13] = molecular target: Tyrosine-protein kinase SYK (Homo sapiens) (UniProt P43405); note: assay method not described here
[14] = molecular target: T-complex protein 1 subunit theta (Homo sapiens) (UniProt P50990); note: assay method not described here
[15] = molecular target: Activated CDC42 kinase 1 (Homo sapiens) (UniProt Q07912); note: assay method not described here
[16] = molecular target: Cleavage and polyadenylation specificity factor subunit 6 (Homo sapiens) (UniProt Q16630); note: assay method not described here
[17] = molecular target: Extended synaptotagmin-2 (Homo sapiens) (UniProt A0FGR8); note: assay method not described here
[18] = molecular target: Isocitrate dehydrogenase [NADP], mitochondrial (Homo sapiens) (UniProt P48735); note: assay method not described here
[19] = molecular target: SUMO-conjugating enzyme UBC9 (Homo sapiens) (UniProt P63279); note: assay method not described here
[20] = molecular target: Proteasome adapter and scaffold protein ECM29 (Homo sapiens) (UniProt Q5VYK3); note: assay method not described here
[21] = molecular target: Protein SGT1 homolog (Homo sapiens) (UniProt Q9Y2Z0); note: assay method not described here
[22] = molecular target: Unconventional myosin-If (Homo sapiens) (UniProt O00160); note: assay method not described here
[23] = molecular target: Cancer-related nucleoside-triphosphatase (Homo sapiens) (UniProt Q9BSD7); note: assay method not described here
[24] = molecular target: Tyrosine-protein kinase Yes (Homo sapiens) (UniProt P07947); note: assay method not described here
[25] = molecular target: Cathepsin D (Homo sapiens) (UniProt P07339); note: assay method not described here
[26] = molecular target: Large ribosomal subunit protein eL38 (Homo sapiens) (UniProt P63173); note: assay method not described here
[27] = molecular target: Large ribosomal subunit protein eL15 (Homo sapiens) (UniProt P61313); note: assay method not described here
[28] = molecular target: Aspartate aminotransferase, cytoplasmic (Homo sapiens) (UniProt P17174); note: assay method not described here
Ephrin type-A receptor 8 = Ephrin type-A receptor 8 (Homo sapiens, UniProt P29322); experiment: Inhibition of Nano Luc-fused full length C-terminal EPHA8 (unknown origin) expressed in HEK293T cells using NanoGlo as substrate incubated for 2 hrs in presence of tracer by NanoBRET assay; type: cell-based
[29] = molecular target: Protein cholesin (Homo sapiens) (UniProt Q9BRJ6); note: assay method not described here
[30] = molecular target: Programmed cell death 6-interacting protein (Homo sapiens) (UniProt Q8WUM4); note: assay method not described here
[31] = molecular target: Serine/threonine-protein kinase/endoribonuclease IRE1 (Homo sapiens) (UniProt O75460); note: assay method not described here
[32] = molecular target: Guanine nucleotide-binding protein G(i) subunit alpha-2 (Homo sapiens) (UniProt P04899); note: assay method not described here
[33] = molecular target: 26S proteasome non-ATPase regulatory subunit 3 (Homo sapiens) (UniProt O43242); note: assay method not described here
[34] = molecular target: Heterogeneous nuclear ribonucleoprotein U (Homo sapiens) (UniProt Q00839); note: assay method not described here
[35] = molecular target: Far upstream element-binding protein 2 (Homo sapiens) (UniProt Q92945); note: assay method not described here
[36] = molecular target: Serine/threonine-protein kinase ICK (Homo sapiens) (UniProt Q9UPZ9); note: assay method not described here
[37] = molecular target: TNF receptor-associated factor 2 (Homo sapiens) (UniProt Q12933); note: assay method not described here
[38] = molecular target: Casein kinase I isoform epsilon (Homo sapiens) (UniProt P49674); note: assay method not described here
[39] = molecular target: Glycogen synthase kinase-3 beta (Homo sapiens) (UniProt P49841); note: assay method not described here
[40] = molecular target: Elongation factor 2 (Homo sapiens) (UniProt P13639); note: assay method not described here
[41] = molecular target: Protein kinase C delta type (Homo sapiens) (UniProt Q05655); note: assay method not described here
[42] = molecular target: Heterogeneous nuclear ribonucleoprotein K (Homo sapiens) (UniProt P61978); note: assay method not described here
[43] = molecular target: Ras association domain-containing protein 5 (Homo sapiens) (UniProt Q8WWW0); note: assay method not described here
[44] = molecular target: G2/mitotic-specific cyclin-B2 (Homo sapiens) (UniProt O95067); note: assay method not described here
G2/mitotic-specific cyclin-B2 (Homo sapiens), sequence (O95067 whole entry): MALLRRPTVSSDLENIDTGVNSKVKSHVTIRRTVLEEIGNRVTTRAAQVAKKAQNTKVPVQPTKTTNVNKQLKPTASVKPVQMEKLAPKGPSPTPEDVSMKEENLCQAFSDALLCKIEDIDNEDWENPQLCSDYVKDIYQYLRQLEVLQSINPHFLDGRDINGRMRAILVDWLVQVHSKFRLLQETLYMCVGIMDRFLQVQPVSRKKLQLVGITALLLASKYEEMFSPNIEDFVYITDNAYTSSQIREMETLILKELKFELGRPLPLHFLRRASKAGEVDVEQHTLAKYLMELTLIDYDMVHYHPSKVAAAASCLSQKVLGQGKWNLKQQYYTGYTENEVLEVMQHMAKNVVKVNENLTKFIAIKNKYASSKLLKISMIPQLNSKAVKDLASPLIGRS

Ras-related protein Rab-14 (Homo sapiens), sequence (P61106 2-215 limits assumed): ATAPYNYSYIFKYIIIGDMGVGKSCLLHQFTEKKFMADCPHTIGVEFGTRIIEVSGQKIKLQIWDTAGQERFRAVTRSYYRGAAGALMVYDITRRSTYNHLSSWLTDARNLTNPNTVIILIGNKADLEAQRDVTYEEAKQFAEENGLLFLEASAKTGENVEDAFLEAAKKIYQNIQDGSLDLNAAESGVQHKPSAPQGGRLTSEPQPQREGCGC
Eukaryotic translation initiation factor 3 subunit J (Homo sapiens), sequence (O75822 whole entry): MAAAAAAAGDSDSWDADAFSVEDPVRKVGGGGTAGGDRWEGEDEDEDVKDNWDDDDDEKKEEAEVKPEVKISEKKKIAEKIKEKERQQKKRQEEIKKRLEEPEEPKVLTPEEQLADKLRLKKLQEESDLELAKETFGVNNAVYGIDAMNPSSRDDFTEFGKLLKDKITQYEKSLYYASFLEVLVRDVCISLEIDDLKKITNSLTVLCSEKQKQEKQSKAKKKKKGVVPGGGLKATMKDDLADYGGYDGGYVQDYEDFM
TNF receptor-associated factor 2 (Homo sapiens), sequence (Q12933 whole entry, canonical isoform): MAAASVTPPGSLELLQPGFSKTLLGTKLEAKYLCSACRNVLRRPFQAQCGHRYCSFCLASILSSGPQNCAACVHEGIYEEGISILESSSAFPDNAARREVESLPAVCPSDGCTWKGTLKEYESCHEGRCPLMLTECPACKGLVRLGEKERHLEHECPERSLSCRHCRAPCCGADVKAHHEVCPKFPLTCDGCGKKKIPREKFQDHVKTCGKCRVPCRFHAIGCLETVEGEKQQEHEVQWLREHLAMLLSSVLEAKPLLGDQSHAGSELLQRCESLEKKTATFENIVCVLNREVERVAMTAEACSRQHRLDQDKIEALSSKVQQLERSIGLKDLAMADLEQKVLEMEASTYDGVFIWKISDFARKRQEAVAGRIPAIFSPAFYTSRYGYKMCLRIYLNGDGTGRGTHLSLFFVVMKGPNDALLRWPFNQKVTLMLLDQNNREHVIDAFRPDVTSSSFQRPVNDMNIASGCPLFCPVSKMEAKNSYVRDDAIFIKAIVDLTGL
Far upstream element-binding protein 2 (Homo sapiens), sequence (Q92945 whole entry): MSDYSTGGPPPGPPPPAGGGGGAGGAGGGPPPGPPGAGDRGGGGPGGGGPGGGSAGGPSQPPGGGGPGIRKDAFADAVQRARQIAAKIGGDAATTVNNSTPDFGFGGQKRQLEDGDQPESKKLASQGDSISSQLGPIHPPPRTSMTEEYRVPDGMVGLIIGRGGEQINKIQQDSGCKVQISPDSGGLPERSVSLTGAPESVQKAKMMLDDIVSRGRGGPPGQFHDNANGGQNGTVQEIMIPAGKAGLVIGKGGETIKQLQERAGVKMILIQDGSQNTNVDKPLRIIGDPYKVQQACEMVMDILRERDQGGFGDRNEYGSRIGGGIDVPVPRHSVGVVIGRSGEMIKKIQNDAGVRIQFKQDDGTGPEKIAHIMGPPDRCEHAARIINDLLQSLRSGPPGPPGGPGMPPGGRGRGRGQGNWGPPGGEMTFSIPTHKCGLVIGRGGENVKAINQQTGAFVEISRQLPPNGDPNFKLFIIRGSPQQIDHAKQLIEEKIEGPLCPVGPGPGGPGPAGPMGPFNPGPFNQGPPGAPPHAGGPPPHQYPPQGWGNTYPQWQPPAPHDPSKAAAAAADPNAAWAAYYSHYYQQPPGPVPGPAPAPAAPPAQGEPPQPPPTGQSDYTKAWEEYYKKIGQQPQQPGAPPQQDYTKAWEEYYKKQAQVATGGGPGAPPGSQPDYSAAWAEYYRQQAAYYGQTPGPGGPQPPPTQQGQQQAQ
Chromodomain-helicase-DNA-binding protein 4 (Homo sapiens), sequence (Q14839 whole entry): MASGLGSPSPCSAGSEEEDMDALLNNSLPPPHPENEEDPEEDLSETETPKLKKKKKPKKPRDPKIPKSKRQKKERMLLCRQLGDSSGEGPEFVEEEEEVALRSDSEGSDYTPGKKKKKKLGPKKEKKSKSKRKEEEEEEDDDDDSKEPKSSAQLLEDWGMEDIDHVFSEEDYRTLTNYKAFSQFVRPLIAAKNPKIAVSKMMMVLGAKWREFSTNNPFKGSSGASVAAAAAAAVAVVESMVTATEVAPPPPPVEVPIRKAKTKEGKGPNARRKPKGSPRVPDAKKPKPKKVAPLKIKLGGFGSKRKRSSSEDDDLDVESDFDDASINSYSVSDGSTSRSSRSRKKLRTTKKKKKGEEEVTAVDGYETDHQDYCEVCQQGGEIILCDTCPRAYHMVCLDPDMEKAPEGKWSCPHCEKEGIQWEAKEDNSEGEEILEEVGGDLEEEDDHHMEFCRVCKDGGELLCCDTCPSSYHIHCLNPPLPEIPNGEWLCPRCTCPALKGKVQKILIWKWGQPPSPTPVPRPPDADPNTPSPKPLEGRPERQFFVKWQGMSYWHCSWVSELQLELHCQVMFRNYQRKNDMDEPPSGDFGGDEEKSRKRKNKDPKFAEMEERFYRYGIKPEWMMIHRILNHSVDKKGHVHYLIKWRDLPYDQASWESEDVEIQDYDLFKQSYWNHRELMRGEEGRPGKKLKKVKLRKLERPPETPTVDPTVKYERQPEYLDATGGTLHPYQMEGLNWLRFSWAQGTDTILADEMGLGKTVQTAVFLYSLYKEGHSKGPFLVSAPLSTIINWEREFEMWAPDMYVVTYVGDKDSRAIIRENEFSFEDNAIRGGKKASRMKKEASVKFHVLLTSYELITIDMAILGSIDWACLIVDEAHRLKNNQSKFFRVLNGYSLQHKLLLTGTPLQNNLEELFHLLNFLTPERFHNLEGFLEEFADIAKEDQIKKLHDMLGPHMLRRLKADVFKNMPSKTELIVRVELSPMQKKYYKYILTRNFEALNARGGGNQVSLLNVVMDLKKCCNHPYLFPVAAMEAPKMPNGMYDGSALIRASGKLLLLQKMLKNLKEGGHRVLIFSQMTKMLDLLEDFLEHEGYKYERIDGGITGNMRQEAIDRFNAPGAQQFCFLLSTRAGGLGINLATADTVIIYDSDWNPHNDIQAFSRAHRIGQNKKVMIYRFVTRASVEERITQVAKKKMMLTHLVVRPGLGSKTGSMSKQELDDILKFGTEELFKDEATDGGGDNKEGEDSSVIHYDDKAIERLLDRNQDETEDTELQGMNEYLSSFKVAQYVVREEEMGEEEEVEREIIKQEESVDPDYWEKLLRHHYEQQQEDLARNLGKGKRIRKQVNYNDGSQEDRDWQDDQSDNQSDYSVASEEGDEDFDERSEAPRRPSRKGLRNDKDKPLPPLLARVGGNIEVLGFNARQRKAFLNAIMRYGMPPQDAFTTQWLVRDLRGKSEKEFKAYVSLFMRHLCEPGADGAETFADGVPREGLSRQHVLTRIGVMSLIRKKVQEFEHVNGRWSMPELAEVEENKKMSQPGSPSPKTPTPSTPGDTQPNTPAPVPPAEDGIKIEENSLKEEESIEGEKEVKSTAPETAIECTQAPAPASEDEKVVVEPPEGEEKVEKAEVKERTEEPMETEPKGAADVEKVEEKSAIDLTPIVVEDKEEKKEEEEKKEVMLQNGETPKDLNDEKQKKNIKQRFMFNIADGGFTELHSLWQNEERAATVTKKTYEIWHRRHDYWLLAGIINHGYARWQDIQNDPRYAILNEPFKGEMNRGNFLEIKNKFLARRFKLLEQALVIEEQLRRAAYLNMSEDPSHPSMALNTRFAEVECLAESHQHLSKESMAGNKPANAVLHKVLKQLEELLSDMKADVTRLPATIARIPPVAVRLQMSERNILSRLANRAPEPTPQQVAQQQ
Zinc finger CCCH-type antiviral protein 1 (Homo sapiens), sequence (Q7Z2W4 whole entry): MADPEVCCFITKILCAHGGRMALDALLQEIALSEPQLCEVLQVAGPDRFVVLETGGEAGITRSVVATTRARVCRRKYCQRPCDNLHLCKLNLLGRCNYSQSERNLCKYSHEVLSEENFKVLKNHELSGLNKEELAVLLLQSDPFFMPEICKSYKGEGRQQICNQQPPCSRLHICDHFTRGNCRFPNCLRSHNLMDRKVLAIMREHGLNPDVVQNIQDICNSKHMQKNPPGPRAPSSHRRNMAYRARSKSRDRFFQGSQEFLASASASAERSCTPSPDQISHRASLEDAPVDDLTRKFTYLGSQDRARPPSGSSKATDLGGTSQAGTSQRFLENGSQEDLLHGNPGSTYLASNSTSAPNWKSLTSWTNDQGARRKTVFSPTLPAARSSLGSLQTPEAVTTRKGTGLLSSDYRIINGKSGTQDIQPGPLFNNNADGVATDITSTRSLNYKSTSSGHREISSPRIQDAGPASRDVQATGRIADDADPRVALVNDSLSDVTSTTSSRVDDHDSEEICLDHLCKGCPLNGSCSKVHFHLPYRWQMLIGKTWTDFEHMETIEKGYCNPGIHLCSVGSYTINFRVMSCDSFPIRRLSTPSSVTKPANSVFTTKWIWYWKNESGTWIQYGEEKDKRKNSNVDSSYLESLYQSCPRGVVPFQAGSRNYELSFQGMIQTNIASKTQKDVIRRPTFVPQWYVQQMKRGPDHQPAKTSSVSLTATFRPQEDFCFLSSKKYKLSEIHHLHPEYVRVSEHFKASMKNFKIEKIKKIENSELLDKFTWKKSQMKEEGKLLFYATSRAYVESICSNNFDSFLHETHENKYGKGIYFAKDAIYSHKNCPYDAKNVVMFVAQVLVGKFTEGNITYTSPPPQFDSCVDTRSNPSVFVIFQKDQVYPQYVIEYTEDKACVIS
Myosin light polypeptide 6 (Homo sapiens), sequence (P60660 whole entry): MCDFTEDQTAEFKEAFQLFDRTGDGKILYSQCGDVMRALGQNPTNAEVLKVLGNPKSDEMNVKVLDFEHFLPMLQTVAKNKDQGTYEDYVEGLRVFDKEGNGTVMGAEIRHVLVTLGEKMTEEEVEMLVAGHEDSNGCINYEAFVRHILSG

Structure (SMILES): Cc1ccc(C(=O)Nc2cccc(C(F)(F)F)c2)cc1Nc1nc(-c2cccnc2)nc2nn(C)cc12
- ED50 [1]: 7.34 µM
- ED50 [2]: 0.54 µM
- ED50 [3]: 4.44 µM
- ED50 [4]: 0.0483 µM
- ED50 [5]: 0.00989 µM
- ED50 [6]: 10.1 µM
- ED50 [7]: 0.0815 µM
- ED50 [8]: 0.0945 µM
- ED50 [9]: 0.615 µM
- ED50 [10]: 0.0327 µM
- ED50 [11]: 0.595 µM
- ED50 [12]: 0.179 µM
- ED50 [13]: 0.216 µM
- ED50 [14]: 43.3 µM
- ED50 [15]: 10.3 µM
- ED50 [16]: 0.349 µM
- ED50 [17]: 0.0286 µM
- ED50 [18]: 16.8 µM
- ED50 [19]: 0.291 µM
- ED50 [20]: 1.15 µM
- ED50 [21]: 4.08 µM
- ED50 [22]: 0.105 µM
- ED50 [23]: 0.0608 µM
- ED50 [24]: 3.56 µM
- ED50 [25]: 760 µM
- ED50 [26]: 0.0274 µM
- ED50 [27]: 0.0592 µM
- ED50 [28]: 0.842 µM
- IC50 (Ephrin type-A receptor 8): 0.21 µM
- ED50 [29]: 39.4 µM
- ED50 [30]: 4.24 µM
- ED50 [31]: 1.92 µM
- ED50 [32]: 0.13 µM
- ED50 [33]: 0.0197 µM
- ED50 [34]: 13200 µM
- ED50 [35]: 4.03 µM
- ED50 [36]: 0.0292 µM
- ED50 [37]: 0.68 µM
- ED50 [38]: 0.00408 µM
- ED50 [39]: 0.0177 µM
- ED50 [40]: 12.5 µM
- ED50 [41]: 0.000136 µM
- ED50 [42]: 0.184 µM
- ED50 [43]: 4.74 µM
- ED50 [44]: 13.5 µM

Structure (SMILES): Cc1ccc(C(=O)Nc2cccc(C(F)(F)F)c2)cc1Nc1nc(-c2cccnc2)nc2c1cnn2C
- ED50 [1]: 0.1 µM
- ED50 [2]: 0.126 µM
- ED50 [3]: 2.88 µM
- ED50 [4]: 13.3 µM
- ED50 [5]: 4.09 µM
- ED50 [6]: 5.15 µM
- ED50 [7]: 5.79 µM
- ED50 [8]: 2.77 µM
- ED50 [9]: 0.00189 µM
- ED50 [10]: 18.1 µM
- ED50 [11]: 53.8 µM
- ED50 [12]: 1.4 µM
- ED50 [13]: 3.85 µM
- ED50 [14]: 0.0186 µM
- ED50 [15]: 2.19 µM
- ED50 [16]: 15 µM
- ED50 [17]: 0.041 µM
- ED50 [18]: 0.00187 µM
- ED50 [19]: 47.7 µM
- ED50 [20]: 11 µM
- ED50 [21]: 17.2 µM
- ED50 [22]: 4.43 µM
- ED50 [23]: 844 µM
- ED50 [24]: 2.58 µM
- ED50 [25]: 59.3 µM
- ED50 [26]: 8.36 µM
- ED50 [27]: 0.425 µM
- ED50 [28]: 6.82 µM
- IC50 (Ephrin type-A receptor 8): 0.0012 µM
- ED50 [29]: 0.0151 µM
- ED50 [30]: 4.91 µM
- ED50 [31]: 0.00529 µM
- ED50 [32]: 0.335 µM
- ED50 [33]: 6.22 µM
- ED50 [34]: 0.0195 µM
- ED50 [35]: 1.03 µM
- ED50 [36]: 0.0433 µM
- ED50 [37]: 3.11 µM
- ED50 [38]: 4.26 µM
- ED50 [39]: 4.03 µM
- ED50 [40]: 4.03 µM
- ED50 [41]: 3.81 µM
- ED50 [42]: 0.0564 µM
- ED50 [43]: 6.41 µM
- ED50 [44]: 3.13 µM
